Assay results: patent publication US12441725B2, “ISO-citrate dehydrogenase (IDH) inhibitor” (ZHEJIANG METON PHARMACEUTICAL CO., LTD, priority 2019, dated 2025)
pIC50: −log10 of the molar value.

What was measured:
IDH1 R132H = molecular target: T1, IDH1 R132H (Homo sapiens, UniProt O75874, R132H); test: Biochemical assay for IDH inhibition (NADPH fluorescence), mutant IDH1 R132H; settings: 50 nM IDH1-R132H, 1 hour pre-incubation, in triplet
T1 construct: 6xHis
Procedure, shortened: (§1)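 Mutant enzyme (25 nM R132C or 50 nM R132H) was preincubated 1 h at room temperature with compound in pH 7.5 Tris buffer containing 1.33 mM α-KG, and the reaction was then started with NADPH (80 μM solution). NADPH consumption was followed by fluorescence (Ex 340/Em 460 nm) for 15 min. IC50 was derived from background-corrected linear rates relative to vehicle, run in triplicate.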

IDH1 R132C = molecular target: T2, IDH1 R132C (Homo sapiens, UniProt O75874, R132C); test: Biochemical assay for IDH inhibition (NADPH fluorescence), mutant IDH1 R132C; settings: 25 nM IDH1-R132C, 1 hour pre-incubation, in triplet
T2 construct: 6xHis
Procedure, shortened: as §1

[1] = molecular target: T3, IDH (endogenous IDH1 R132C) in HT1080 cell (Homo sapiens, UniProt O75874, R132C); test: Cell-based assay for IDH inhibition (decrease of D-2-HG) in HT1080 cells; settings: human fibrosarcoma cell line HT1080, 16 hours treatment, D-2-HG by LC-MS, in triplet
T3 construct: which harbor endogenous heterozygous IDH1 R132C and R132H mutation respectively and accumulate D-2-HG
Procedure, shortened: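 HT1080 cells with endogenous IDH1 R132C, grown in DMEM/10% FBS, treated with compound at several concentrations for 16 h. Metabolites extracted in cold 40% methanol/40% acetonitrile and D-2-HG measured by HILIC LC-MS/MS, normalized to glutamate. IC50 from D-2-HG relative to DMSO controls; run in triplicate.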

T3 sequence (O75874 2-414 R132C): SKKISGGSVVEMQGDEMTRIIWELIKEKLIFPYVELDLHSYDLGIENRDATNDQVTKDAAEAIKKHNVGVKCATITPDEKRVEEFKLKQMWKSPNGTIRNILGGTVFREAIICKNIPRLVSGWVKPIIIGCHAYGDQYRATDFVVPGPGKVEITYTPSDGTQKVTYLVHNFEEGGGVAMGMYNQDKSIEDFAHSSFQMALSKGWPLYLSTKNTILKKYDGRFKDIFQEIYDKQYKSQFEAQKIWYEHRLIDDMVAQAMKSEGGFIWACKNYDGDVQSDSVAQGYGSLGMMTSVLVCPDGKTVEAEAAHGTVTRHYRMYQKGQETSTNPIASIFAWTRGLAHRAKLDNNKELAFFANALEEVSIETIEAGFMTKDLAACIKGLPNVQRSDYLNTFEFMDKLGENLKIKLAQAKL
T2 sequence (O75874 whole entry R132C): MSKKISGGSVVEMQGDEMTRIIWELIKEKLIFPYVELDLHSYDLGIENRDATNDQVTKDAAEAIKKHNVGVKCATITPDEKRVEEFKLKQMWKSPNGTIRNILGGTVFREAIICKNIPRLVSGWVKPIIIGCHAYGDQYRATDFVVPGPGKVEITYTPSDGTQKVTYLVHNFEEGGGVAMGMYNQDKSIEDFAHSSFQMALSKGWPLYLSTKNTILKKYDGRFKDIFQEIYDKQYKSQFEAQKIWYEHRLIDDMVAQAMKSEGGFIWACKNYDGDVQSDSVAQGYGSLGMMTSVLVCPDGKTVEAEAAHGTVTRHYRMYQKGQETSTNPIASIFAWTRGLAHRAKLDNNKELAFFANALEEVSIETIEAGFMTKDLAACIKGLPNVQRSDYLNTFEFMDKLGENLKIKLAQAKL
T1 sequence (O75874 whole entry R132H): as the sequence (O75874 whole entry R132C) above, with C132H counted along it

Compound	pIC50 (IDH1 R132H)	pIC50 (IDH1 R132C)	pIC50 [1]
CCN1Cc2c(ccnc2N[C@@H](C)c2ccc(Oc3ccc4c(ccn4C)c3)c(F)c2)C1=O [Compound 3, (S)-2-ethyl-4-((1-(3-fluoro-4-((1-methyl-1H-indol-5-yl)oxy)phenyl)ethyl)amino)-2,3-dihydro-1H-pyrrolo[3,4-c]pyridin-1-one]	6.30 to 7.00	6.30 to 7.00	6.00 to 6.30
CCN1Cc2c(ccnc2N[C@@H](C)c2cc(F)c(O[C@@H]3C[C@@H](C)CC(C)(C)C3)cc2F)C1=O [Compound 23, 4-(((S)-1-(2,5-difluoro-4-(((1R,5S)-3,3,5-trimethylcyclohexyl)oxy)phenyl)ethyl)amino)-2-ethyl-2,3-dihydro-1H-pyrrolo[3,4-c]pyridin-1-one]	> 7.00	> 7.00	> 7.00
CCN1Cc2c(ccnc2N[C@@H](C)c2cc(C)c(-c3ccnc(C(F)(F)F)c3)cn2)C1=O [Compound 45, (S)-2-ethyl-4-((1-(4-methyl-2′-(trifluoromethyl)-[3,4′-bipyridin]-6-yl)ethyl)amino)-2,3-dihydro-1H-pyrrolo[3,4-c]pyridin-1-one]	< 6.00	< 6.00	< 6.00
CCN1Cc2c(N[C@@H](C)c3ccc(-c4ccc(F)c(C)c4)c(F)c3)ncc(F)c2C1=O [Compound 41, (S)-4-((1-(2,4′-difluoro-3′-methyl-[1,1′-biphenyl]-4-yl)ethyl)amino)-2-ethyl-7-fluoro-2,3-dihydro-1H-pyrrolo[3,4-c]pyridin-1-one]	6.30 to 7.00	6.00 to 6.30	< 6.00

The next lines start with the values.

pIC50 (IDH1 R132H)	pIC50 (IDH1 R132C)	pIC50 [1]	Compound
> 7.00	> 7.00	> 7.00	CCN1Cc2c(ccnc2N[C@@H](C)c2cc(F)c(-c3cc(C(C)(C)C)ccn3)cc2F)C1=O [Compound 108, (S)-4-((1-(4-(4-(tert-butyl)pyridin-2-yl)-2,5-difluorophenyl)ethyl)amino)-2-ethyl-2,3-dihydro-1H-pyrrolo[3,4-c]pyridin-1-one]
6.30 to 7.00	6.30 to 7.00	6.00 to 6.30	CCN1Cc2c(ccnc2N[C@@H](C)c2ccc(-c3ccnc(CC4CC4)c3)c(F)c2)C1=O [Compound 79, (S)-4-((1-(4-(2-(cyclopropylmethyl)pyridin-4-yl)-3-fluorophenyl)ethyl)amino)-2-ethyl-2,3-dihydro-1H-pyrrolo[3,4-c]pyridin-1-one]
> 7.00	> 7.00	> 7.00	CCN1Cc2c(ccnc2N[C@@H](C)c2cc(F)c(-c3cc(C(C)(C)F)nc(OC)n3)cc2F)C1=O [Compound 141, (S)-4-((1-(2,5-difluoro-4-(6-(2-fluoropropan-2-yl)-2-methoxypyrimidin-4-yl)phenyl)ethyl)amino)-2-ethyl-2,3-dihydro-1H-pyrrolo[3,4-c]pyridin-1-one]
> 7.00	6.30 to 7.00	6.30 to 7.00	CCN1Cc2c(ccnc2N[C@@H](C)c2cc(F)c(-c3ccnc(C4CCCC4)c3)cc2F)C1=O [Compound 101, (S)-4-((1-(4-(2-cyclopentylpyridin-4-yl)-2,5-difluorophenyl)ethyl)amino)-2-ethyl-2,3-dihydro-1H-pyrrolo[3,4-c]pyridin-1-one]
< 6.00	< 6.00	< 6.00	CCN1Cc2c(ccnc2N[C@@H](C)c2ccc(-c3ccnc(C(=O)C4CC4)c3)c(F)c2)C1=O [Compound 86, (S)-4-((1-(4-(2-(cyclopropanecarbonyl)pyridin-4-yl)-3-fluorophenyl)ethyl)amino)-2-ethyl-2,3-dihydro-1H-pyrrolo[3,4-c]pyridin-1-one]
